The source made the active and inactive calls.
Columns and labels:
Leucine aminopeptidase = biological target: T1, Leucine aminopeptidase (Plasmodium falciparum 3D7, UniProt Q8IL11); assay: P. falciparum M17LAP inhibitors, primary screen, biochemical, fluorogenic H-Leu-NHMec substrate, 1536-well (AID 1619); format: functional
T1 sequence (Q8IL11 whole entry): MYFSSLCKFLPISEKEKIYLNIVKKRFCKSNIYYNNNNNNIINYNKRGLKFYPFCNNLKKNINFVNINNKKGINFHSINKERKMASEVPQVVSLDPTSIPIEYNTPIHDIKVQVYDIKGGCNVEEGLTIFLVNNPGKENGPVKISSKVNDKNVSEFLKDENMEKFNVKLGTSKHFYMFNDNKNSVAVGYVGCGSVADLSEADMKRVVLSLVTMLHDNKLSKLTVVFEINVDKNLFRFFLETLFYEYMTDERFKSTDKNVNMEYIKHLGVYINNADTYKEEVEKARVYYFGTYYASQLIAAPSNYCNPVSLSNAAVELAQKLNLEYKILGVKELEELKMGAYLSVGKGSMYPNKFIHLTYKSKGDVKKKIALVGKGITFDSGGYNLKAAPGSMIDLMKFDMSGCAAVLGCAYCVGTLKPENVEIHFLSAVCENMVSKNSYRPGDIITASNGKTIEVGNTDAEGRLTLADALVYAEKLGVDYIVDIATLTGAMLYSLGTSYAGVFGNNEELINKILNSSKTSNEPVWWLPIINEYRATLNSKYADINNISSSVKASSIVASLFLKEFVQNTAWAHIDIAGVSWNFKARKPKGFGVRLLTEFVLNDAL

Large T antigen = Large T antigen (Simian virus 40, UniProt P03070); format: functional, Betapolyomavirus macacae;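 further: Confirmatory-stage PubChem screen for compounds that inhibit SV40 T antigen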
Chain of Large T antigen (P03070 whole entry): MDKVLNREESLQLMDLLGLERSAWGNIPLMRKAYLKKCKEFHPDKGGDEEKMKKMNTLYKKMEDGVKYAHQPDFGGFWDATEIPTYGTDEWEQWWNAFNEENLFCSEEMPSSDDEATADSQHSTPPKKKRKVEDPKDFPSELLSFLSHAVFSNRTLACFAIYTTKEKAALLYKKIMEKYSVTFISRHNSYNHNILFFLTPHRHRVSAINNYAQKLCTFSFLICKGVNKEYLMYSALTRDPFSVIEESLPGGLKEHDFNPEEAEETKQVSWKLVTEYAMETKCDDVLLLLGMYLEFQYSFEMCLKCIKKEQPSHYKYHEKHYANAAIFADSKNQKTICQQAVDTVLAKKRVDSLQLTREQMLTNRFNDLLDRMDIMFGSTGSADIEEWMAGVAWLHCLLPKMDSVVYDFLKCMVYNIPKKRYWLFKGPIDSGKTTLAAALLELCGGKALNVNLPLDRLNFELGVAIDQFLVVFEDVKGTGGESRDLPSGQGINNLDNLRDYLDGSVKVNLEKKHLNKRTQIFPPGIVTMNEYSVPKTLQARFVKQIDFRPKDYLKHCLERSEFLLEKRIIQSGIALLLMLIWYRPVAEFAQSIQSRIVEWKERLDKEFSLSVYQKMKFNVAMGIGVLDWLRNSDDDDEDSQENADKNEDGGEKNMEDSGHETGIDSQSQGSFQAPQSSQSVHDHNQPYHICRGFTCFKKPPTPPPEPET

[1] = biological target: DNA dC->dU-editing enzyme APOBEC-3A (Homo sapiens, UniProt P31941); assay: A3A deaminase inhibition for selectivity – biochemical, dose response (AID 504722); format: functional
Chain of DNA dC->dU-editing enzyme APOBEC-3A (P31941 whole entry): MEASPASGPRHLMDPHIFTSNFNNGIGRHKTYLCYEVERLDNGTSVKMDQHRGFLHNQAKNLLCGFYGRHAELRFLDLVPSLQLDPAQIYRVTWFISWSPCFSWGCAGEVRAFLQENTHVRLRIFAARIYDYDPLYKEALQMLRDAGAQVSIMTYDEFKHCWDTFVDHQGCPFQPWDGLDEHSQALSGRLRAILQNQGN

[2] = biological target: DNA dC->dU-editing enzyme APOBEC-3G (Homo sapiens, UniProt Q9HC16); assay: Dose Response confirmation of small molecule APOBEC3G DNA Deaminase Inhibitors via a fluorescence-based single-stranded DNA deaminase assay. [Related pubchem assays (depositor defined):AID493012, AID493028]; format: functional
Chain of DNA dC->dU-editing enzyme APOBEC-3G (Q9HC16 whole entry): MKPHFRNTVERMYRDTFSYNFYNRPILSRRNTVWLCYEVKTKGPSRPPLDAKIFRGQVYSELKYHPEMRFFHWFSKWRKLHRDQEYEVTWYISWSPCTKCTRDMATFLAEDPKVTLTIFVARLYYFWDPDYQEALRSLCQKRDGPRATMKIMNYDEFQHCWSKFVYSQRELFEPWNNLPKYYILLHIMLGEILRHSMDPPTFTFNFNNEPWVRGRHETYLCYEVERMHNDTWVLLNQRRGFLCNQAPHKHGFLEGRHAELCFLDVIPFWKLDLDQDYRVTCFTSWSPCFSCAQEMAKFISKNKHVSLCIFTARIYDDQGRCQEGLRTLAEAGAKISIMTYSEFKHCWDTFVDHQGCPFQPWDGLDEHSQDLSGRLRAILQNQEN

[3] = biological target: Heat shock protein HSP 90-alpha (Homo sapiens, UniProt P07900); format: functional, organism-based
[4] = microbe, parasite or virus in culture; format: functional; settings: Mycobacterium tuberculosis
[5] = Vero E6 cell cytotoxicity, dose response, cytotoxicity control for non-replicating M. tuberculosis project, secondary assay (AID 492998); format: functional, VeroE6; settings: Vero C1008
cells = format: functional
Genome polyprotein = Genome polyprotein (dengue virus type 2, UniProt P29990); assay: flavivirus cap methylation enzyme inhibition – biochemical, confirmation dose response, primary screen (AID 588689); format: functional
Chain of Genome polyprotein (P29990 2492-3391 limits assumed): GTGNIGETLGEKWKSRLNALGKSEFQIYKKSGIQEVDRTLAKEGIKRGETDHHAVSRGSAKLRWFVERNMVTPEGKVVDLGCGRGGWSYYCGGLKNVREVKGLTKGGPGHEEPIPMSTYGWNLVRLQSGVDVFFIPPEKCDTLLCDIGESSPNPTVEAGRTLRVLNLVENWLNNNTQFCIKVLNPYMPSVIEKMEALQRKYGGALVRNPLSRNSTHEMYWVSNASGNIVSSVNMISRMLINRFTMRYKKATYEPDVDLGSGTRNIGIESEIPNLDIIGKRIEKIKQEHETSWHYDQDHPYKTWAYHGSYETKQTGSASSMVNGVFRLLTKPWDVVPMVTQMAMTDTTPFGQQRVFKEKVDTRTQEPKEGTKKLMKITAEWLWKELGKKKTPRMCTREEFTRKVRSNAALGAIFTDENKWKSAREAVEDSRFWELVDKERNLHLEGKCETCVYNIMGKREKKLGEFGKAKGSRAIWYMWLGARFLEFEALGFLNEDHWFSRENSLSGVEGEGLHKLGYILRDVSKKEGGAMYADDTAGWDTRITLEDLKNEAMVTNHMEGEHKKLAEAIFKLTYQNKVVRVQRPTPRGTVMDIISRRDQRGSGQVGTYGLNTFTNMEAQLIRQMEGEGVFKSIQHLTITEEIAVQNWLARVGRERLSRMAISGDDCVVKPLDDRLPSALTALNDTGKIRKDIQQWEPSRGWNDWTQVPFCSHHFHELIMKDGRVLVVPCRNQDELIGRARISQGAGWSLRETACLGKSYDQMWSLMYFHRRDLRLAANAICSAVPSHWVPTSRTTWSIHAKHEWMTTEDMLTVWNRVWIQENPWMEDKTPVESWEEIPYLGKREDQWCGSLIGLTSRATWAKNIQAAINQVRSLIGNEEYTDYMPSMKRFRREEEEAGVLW

[6] = biological target: Beta-2 adrenergic receptor (Homo sapiens, UniProt P07550); assay: ADRB2 activation measured by internalization – cell-based, FAP fluorogen, flow cytometry, cherry pick 1, dose response (AID 588763); format: functional
Chain of Beta-2 adrenergic receptor (P07550 whole entry): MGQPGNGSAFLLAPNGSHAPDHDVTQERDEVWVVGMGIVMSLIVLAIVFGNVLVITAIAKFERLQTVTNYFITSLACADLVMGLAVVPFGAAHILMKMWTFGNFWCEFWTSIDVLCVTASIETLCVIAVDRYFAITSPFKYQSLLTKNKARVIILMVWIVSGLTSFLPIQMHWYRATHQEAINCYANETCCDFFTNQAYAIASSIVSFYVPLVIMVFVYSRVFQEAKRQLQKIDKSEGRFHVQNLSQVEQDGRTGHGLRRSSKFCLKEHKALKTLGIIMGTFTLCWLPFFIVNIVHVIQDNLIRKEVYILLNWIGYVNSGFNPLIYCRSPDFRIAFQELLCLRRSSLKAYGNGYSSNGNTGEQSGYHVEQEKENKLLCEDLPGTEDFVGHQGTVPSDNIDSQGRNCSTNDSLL

Aminopeptidase N = biological target: T2, Aminopeptidase N (Plasmodium falciparum FcB1/Columbia, UniProt O96935); assay: malaria alanyl aminopeptidase activity blockers – biochemical, fluorogenic H-Leu-NHMec substrate, 1536-well (AID 1445); parameters: species or system Plasmodium falciparum 3D7, 3D7
T2 sequence (O96935 whole entry): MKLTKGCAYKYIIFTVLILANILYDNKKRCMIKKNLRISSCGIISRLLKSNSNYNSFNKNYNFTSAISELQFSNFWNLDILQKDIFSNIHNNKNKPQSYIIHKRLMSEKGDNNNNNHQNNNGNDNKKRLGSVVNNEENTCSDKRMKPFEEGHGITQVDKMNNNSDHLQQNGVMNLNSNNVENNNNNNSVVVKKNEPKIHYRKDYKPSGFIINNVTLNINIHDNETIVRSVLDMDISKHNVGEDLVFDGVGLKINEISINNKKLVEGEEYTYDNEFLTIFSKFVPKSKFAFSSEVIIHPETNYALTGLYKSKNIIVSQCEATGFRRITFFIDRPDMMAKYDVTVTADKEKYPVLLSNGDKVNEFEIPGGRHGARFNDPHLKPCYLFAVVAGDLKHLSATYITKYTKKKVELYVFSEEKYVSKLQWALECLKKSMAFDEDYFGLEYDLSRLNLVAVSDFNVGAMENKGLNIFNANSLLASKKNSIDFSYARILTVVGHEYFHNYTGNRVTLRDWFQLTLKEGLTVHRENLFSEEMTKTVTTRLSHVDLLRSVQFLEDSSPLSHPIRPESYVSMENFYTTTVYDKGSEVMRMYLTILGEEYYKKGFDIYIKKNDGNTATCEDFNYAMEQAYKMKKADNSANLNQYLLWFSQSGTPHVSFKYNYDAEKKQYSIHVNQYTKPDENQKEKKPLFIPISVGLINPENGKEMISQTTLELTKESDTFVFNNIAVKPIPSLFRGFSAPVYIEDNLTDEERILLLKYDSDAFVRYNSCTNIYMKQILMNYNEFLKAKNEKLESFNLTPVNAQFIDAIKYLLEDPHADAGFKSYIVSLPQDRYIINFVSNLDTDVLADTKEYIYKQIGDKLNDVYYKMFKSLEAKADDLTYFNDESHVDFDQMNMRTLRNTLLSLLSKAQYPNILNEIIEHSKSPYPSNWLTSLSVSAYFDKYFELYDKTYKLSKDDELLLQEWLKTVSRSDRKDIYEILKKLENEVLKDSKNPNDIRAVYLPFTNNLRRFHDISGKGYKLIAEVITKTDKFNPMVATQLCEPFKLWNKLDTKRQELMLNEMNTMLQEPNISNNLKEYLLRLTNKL

[7] = biological target: T3, Short transient receptor potential channel 4 (Mus musculus, UniProt Q9QUQ5); assay: calcium entry via TRPC4 opening agents – cell-based, HEK293 TRPC4/mu-opioid, Fluo-4 calcium, dose response (AID 434937); format: functional
T3 sequence (Q9QUQ5 whole entry): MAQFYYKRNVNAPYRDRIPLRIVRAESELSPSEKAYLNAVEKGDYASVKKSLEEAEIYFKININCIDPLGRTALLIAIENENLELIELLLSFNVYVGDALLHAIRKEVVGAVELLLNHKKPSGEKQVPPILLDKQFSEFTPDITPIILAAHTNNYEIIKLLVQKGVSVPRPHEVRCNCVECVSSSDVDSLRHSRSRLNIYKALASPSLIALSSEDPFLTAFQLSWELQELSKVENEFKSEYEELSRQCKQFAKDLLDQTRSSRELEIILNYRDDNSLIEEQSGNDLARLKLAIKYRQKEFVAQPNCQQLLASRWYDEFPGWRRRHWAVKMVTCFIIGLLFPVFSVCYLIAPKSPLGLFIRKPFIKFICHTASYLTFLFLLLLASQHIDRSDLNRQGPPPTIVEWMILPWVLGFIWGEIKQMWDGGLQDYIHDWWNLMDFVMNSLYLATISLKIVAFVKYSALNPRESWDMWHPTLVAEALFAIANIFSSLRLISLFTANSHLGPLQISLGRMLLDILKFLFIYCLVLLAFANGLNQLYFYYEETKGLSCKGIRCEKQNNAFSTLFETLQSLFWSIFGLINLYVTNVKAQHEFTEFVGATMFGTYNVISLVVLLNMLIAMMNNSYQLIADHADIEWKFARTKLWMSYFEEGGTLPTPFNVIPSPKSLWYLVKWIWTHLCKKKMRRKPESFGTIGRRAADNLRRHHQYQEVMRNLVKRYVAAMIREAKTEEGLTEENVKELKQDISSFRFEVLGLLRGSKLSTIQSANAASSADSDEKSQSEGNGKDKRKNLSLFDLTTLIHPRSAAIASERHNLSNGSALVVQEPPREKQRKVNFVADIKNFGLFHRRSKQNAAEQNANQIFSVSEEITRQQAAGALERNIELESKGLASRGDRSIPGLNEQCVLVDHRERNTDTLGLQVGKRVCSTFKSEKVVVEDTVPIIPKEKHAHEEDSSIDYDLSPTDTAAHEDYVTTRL

[8] = THP-1 cell cytotoxicity, dose response, cytotoxicity control for non-replicating M. tuberculosis project (AID 489025); format: functional
[9] = HEK-293T viability loss after treatment – luminescence, T-cell screen hits, cytotoxicity control for TCR NF-kB inhibitor project, dose response (AID 489026); format: functional, cell-based;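 further: cells exposed to compound about 14 hours before the viability readout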
[10] = Luminescence Cell-Based Dose Retest to Confirm Inhibitors of Cancer Stem Cells. [Related pubchem assays (depositor defined):AID2717, AID2721]; format: functional; settings: Homo sapiens
[11] = biological target: T4, Ubiquitin-conjugating enzyme E2 N (Homo sapiens, UniProt P61088); format: functional;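 further: Dose-response confirmation in a TR-FRET assay detecting UBC13-driven polyubiquitin chain formation, inhibition measured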
T4 sequence (P61088 whole entry): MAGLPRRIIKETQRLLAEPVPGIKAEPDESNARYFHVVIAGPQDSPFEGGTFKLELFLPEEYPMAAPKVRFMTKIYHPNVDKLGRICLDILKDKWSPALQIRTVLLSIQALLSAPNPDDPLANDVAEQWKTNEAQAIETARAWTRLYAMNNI

[12] = biological target: T5, Rac GTPase-activating protein 1 (Homo sapiens, UniProt Q9H0H5); assay: blockers of MgcRacGAP-driven Rac1 GTP hydrolysis – biochemical, ADP Hunter fluorescence, primary and confirmatory, confirmation (AID 624330); format: functional
T5 sequence (Q9H0H5 whole entry): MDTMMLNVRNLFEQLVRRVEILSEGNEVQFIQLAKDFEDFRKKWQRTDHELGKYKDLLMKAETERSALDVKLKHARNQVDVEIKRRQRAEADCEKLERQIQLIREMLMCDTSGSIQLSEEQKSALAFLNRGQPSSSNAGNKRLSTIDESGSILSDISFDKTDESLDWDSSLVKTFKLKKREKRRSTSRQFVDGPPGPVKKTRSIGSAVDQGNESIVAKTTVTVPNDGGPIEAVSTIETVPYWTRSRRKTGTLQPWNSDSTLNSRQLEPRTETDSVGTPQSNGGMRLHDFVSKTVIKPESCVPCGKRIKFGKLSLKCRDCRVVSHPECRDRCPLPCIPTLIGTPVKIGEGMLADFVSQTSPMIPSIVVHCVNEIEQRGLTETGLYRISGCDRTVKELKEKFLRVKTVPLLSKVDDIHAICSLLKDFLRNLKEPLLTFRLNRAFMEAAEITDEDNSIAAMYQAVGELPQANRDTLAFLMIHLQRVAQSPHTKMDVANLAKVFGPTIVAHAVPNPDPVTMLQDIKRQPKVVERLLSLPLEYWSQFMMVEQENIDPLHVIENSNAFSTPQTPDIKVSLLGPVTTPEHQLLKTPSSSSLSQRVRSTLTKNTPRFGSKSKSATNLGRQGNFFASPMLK

Oc1ccc(-c2n[nH]c(=S)[nH]2)cc1
IC50 (Leucine aminopeptidase): 20.6 µM (active)
IC50 (Large T antigen): 6.95 µM (active)
IC50 [1]: > 100 µM (inactive)
IC50 [2]: 4.02 µM (active)

Cc1cccc(C)c1NC(=O)COC(=O)c1ccc([N+](=O)[O-])o1
AC50 [3]: 2.57 µM (active)

Cc1ccc(C)c(-c2nnc(NC(=O)C3=COCCO3)o2)c1
CC50 [4]: > 40 µM (active)
CC50 [5]: 19 µM (active)
IC50 (cells): 6.12 µM (active)

CN(C)c1ccc(C=C2C(=O)NC(=O)NC2=O)cc1[N+](=O)[O-]
IC50 (Genome polyprotein): 16.3 µM (active)

Cn1c(S)nnc1-c1cc2c(C(F)(F)F)nn(C)c2s1
IC50 [1]: > 100 µM (inactive)
IC50 [2]: 1.84 µM (active)

c1nc(NCCN2CCOCC2)c2sc3nc(N4CCOCC4)c4c(c3c2n1)CCC4
EC50 [6]: 3.34 µM (active)

Cc1ccc2c(c1)c1nnc(SCC(=O)N3CCCc4ccccc43)nc1n2CC(=O)O
IC50 (Aminopeptidase N): 26.8 µM (active)

O=C(c1sc2ccccc2c1Cl)N(Cc1cccs1)C1CCS(=O)(=O)C1 (stereo not given)
EC50 [7]: 1.88 µM (active)

O=C(NCc1cccs1)C1CCN(S(=O)(=O)c2cccs2)CC1
IC50 (Aminopeptidase N): 51.9 µM (active)

CCOC(=O)c1sc2nc(CSc3ccccc3)nc(NCCN(C)C)c2c1C
CC50 [5]: 17.8 µM (active)
CC50 [8]: 31.2 µM (active)
IC50 (cells): 22.5 µM (active)

C/C=C(\C)C(=O)N[C@@H](c1ccccc1)[C@@H](O)C(=O)O[C@H]1C[C@@]2(O)[C@@H](OC(=O)c3ccccc3)C3[C@](C)(C(=O)[C@H](O)C(=C1C)C2(C)C)[C@@H](O)C[C@H]1OC[C@@]31OC(C)=O (stereo not given in full)
IC50 [9]: > 80 µM (inactive)

O=C(Nc1ccc(Cl)cc1Cl)c1cccc(N2C(=O)C=CC2=O)c1
IC50 [1]: > 100 µM (inactive)
CC50 [8]: > 40 µM (active)
IC50 [2]: 13.8 µM (active)
AC50 [3]: 0.295 µM (active)

CN(CC(=O)Nc1cccc(F)c1)C(=O)c1cn(-c2ccccc2)nc1-c1ccc(Cl)cc1
AC50 [10]: 2.93 µM (active)
AC50 [3]: 8.31 µM (active)

O=C(Nc1ccccc1)c1ccccc1CCc1ccccc1
EC50 [6]: 1.7 µM (active)

CSc1ccc(CNC(=O)c2ccc(NC(=O)C3=CSCCO3)cc2)cc1
EC50 [6]: 0.0482 µM (active)

COC(=O)c1[nH]c2ccc(F)cc2c1NS(=O)(=O)c1ccc(OC)cc1
IC50 [9]: > 80 µM (inactive)

O=C(OCc1cccc([N+](=O)[O-])c1)c1cccnc1Cl
IC50 [11]: > 20 µM (inactive)

COC(=O)NCC(c1ccc2c(c1)OCO2)N1CCN(c2ccc(OC)cc2)CC1 (stereo not given)
IC50 [12]: 123 µM (active)
EC50 [7]: 0.944 µM (active)

CCc1ccc2nc(SCC(=O)Nc3ccccc3N3CCOCC3)c(C#N)cc2c1
IC50 [9]: > 80 µM (inactive)
AC50 [10]: 2.39 µM (active)

Cn1cncc1C#Cc1c(-c2ccsc2)sc2ccccc12
AC50 [10]: 4.68 µM (active)
AC50 [3]: 7.16 µM (active)

CC[C@@H](C)[C@@H]1CN([C@@H](C)CN2CCC[C@H]2CN2C(N)=NC[C@@H]2Cc2ccccc2)C(=N)N1CCCC1CCCC1
IC50 [11]: > 20 µM (inactive)

CN(C)c1ccc(/C=N/n2c(S)nnc2-c2cccnc2)cc1
IC50 [1]: > 100 µM (inactive)
IC50 [2]: 2.56 µM (active)

Cc1ccsc1/C=N/n1c(S)nnc1-c1ccncc1
IC50 [1]: > 100 µM (inactive)
IC50 [2]: 2.45 µM (active)
